Assay results from paper PMC6235531, “Analyzing Protein Architectures and Protein-Ligand Complexes by Integrative Structural Mass Spectrometry” (Journal of Visualized Experiments : JoVE, 2018).
Counter-ions that a name gives are not always drawn.

Key:
[1] = target: T1, HerA-NurA (Saccharolobus solfataricus, UniProt Q97WG8); assay: native nESI mass spectrometry titration; assay type: binding; conditions: 5 uM protein, 0-1 mM ligand, 2 mM MgCl2, 25 °C 1 h, then 200 mM ammonium acetate pH 7; also tested with 25 bp dsDNA
T1 construct: purified HerA hexamer with NurA dimer; with DNA double-strand break repair nuclease NurA

[2] = target: T2, HerA (Saccharolobus solfataricus, UniProt Q97WG8); assay: native nESI mass spectrometry titration; assay type: binding; conditions: increasing ATP-γ-S; no NurA; 200 mM ammonium acetate
T2 construct: purified HerA without NurA, hexamer and heptamer
T2 sequence (Q97WG8 1-500): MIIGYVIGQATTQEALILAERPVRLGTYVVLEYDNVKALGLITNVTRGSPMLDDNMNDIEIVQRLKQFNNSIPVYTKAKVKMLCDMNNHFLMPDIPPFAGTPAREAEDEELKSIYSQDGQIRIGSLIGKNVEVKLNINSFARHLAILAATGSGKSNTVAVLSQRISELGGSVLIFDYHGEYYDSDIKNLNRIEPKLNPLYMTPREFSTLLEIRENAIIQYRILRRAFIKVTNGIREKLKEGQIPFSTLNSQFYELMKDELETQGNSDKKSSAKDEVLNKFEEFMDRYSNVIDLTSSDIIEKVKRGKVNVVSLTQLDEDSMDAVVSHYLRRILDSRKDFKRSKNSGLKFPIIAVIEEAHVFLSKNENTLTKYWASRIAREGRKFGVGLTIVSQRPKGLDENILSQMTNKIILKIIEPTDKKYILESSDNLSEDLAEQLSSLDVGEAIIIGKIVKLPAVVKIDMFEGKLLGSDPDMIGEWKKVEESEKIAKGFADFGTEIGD

T1 sequence (Q97WH1 whole entry, one chain of several, further chain): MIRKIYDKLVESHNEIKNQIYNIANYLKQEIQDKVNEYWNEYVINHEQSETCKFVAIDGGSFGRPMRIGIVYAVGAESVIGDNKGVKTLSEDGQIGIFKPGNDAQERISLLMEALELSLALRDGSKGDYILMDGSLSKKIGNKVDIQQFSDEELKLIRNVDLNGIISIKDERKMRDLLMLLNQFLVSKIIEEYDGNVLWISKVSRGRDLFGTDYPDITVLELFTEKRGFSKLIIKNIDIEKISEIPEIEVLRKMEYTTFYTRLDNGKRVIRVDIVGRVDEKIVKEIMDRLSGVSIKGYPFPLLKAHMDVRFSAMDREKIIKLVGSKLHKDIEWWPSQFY

Row | Structure (SMILES) | native nESI mass spectrometry titration [1] | native nESI mass spectrometry titration [2]
1 | Nc1ncnc2c1ncn2[C@@H]1O[C@H](COP(=O)(O)OP(=O)(O)O)[C@@H](O)[C@H]1O [ADP] | ATP-γ-S and ADP titrations experiments determined the pairwise nucleotide binding to HerA-NurA alone | –
2 | Nc1ncnc2c1ncn2[C@@H]1O[C@H](COP(=O)(O)OP(=O)(O)OP(O)(O)=S)[C@@H](O)[C@H]1O [ATP-γ-S, adenosine 5′-O-(3-thiotriphosphate), tetralithium salt] | ATP-γ-S and ADP titrations experiments determined the pairwise nucleotide binding to HerA-NurA alone | Number of ATP-γ-S molecules bound is shown on the spectra
